# According to BindingDB's records for doi:10.1021/jm0011169 (Stockholm University, 2001):
# Biological target: T1, Dimer of Gag-Pol polyprotein [489-587] (Human immunodeficiency virus 1, UniProt P12497)
# T1 construct: 489-587
# Assay: Protease Inhibition Assay
# Settings: pH 5; 30 °C
# Protocol: A fluorimetric assay was used to determine the effects of the inhibitors on HIV-1 protease. This assay used an internally quenched fluorescent peptide substrate. The measurements were performed in 96-well plates with a Fluoroscan plate reader. Excitation and emission wavelengths were 355 nm and 500 nm, respectively.
row,Structure (SMILES),Ki [nM]
1,"O=C(N[C@H]1c2ccccc2C[C@H]1O)[C@H](SCc1ccccc1F)[C@H](O)[C@@H](O)[C@@H](SCc1ccccc1F)C(=O)N[C@H]1c2ccccc2C[C@H]1O [N1,N6-Di[(2R)-hydroxy-(1S)-indanyl]-(2R,3R,4R,5R)-2,5-di(2-fluorobenzylsulfanyl)-3,4-dihydroxyhexanediamide]",4.3
2,"C=CCS[C@@H](C(=O)N[C@H]1c2ccccc2C[C@H]1O)[C@H](O)[C@@H](O)[C@@H](SCC=C)C(=O)N[C@H]1c2ccccc2C[C@H]1O [(2R,3R,4R,5R)-3,4-dihydroxy-N,N'-bis[(1S,2R)-2-hydroxy-2,3-dihydro-1H-inden-1-yl]-2,5-bis(prop-2-en-1-ylsulfanyl)hexanediamide]",16
3,"O=C(N[C@H]1c2ccccc2C[C@H]1O)[C@H](Sc1ccccc1F)[C@H](O)[C@@H](O)[C@@H](Sc1ccccc1F)C(=O)N[C@H]1c2ccccc2C[C@H]1O [(2R,3R,4R,5R)-2,5-bis[(2-fluorophenyl)sulfanyl]-3,4-dihydroxy-N,N'-bis[(1S,2R)-2-hydroxy-2,3-dihydro-1H-inden-1-yl]hexanediamide]",2.3
4,"O=C(N[C@H]1c2ccccc2C[C@H]1O)[C@H](SCc1ccccc1)[C@H](O)[C@@H](O)[C@@H](SCc1ccccc1)C(=O)N[C@H]1c2ccccc2C[C@H]1O [N1,N6-Di[(2R)-hydroxy-(1S)-indanyl]-(2R,3R,4R,5R)-2,5-di(benzylsulfanyl)-3,4-dihydroxyhexanediamide]",2.8
5,"O=C(N[C@H]1c2ccccc2C[C@H]1O)[C@H](Sc1ccccn1)[C@H](O)[C@@H](O)[C@@H](Sc1ccccn1)C(=O)N[C@H]1c2ccccc2C[C@H]1O [N1,N6-Di[(2R)-hydroxy-(1S)-indanyl]-(2R,3R,4R,5R)-3,4-dihydroxy-2,5-di(2-pyridylsulfanyl)hexanediamide]",285
6,"O=C(N[C@H]1c2ccccc2C[C@H]1O)[C@H](Sc1ccccc1)[C@H](O)[C@@H](O)[C@@H](Sc1ccccc1)C(=O)N[C@H]1c2ccccc2C[C@H]1O [N1,N6-Di[(2R)-hydroxy-(1S)-indanyl]-(2R,3R,4R,5R)-3,4-dihydroxy-2,5-di(phenylsulfanyl)hexanediamide]",1.8
